Test results: ChEMBL document CHEMBL1128967, “Quantification of the extent of attenuation of the rate of turnover chemistry of the TEM-1 -lactamase by the -1R-hydroxyethyl group in substrates” (Bioorg Med Chem Lett, 1996)
Values belong to the molecule of their own block, whether it stands above or below them.

Assays:
[1] = Compound was evaluated for the beta-lactamase activity as substrate expressed as ratio of kcat/Km.
[2] = (§1) Compound was evaluated for the beta-lactamase activity as a substrate.
[3] = Compound was evaluated for beta-lactamase activity as a substrate.
[4] = target: Beta-lactamase (Enterobacter cloacae) (UniProt P05364); experiment: as §1
[5] = Compound was evaluated for the beta-lactamase activity as a substrate expressed as ratio of kcat/Km.

Chain of Beta-lactamase (Enterobacter cloacae) (P05364 21-381 limits assumed): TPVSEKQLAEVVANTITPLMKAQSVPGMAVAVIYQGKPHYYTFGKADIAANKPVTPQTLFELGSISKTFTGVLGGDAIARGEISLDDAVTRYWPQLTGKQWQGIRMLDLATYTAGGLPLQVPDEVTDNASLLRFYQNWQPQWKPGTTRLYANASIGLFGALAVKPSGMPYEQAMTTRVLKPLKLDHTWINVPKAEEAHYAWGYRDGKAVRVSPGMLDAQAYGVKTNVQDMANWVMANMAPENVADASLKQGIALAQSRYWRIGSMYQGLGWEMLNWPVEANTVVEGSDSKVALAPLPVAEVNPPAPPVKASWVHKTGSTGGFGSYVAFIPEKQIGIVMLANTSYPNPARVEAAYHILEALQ

k cat/Km [1]: 27 M⁻¹ s⁻¹
Compound: C[C@@H](O)[C@H]1C(=O)N2[C@@H]1SC(C)(C)[C@@H]2C(=O)O

k cat [2]: 0.04 s⁻¹
Ratio [1]: 1480 M⁻¹ s⁻¹
Km [3]: 27 µM
Compound: C[C@@H](O)[C@H]1C(=O)N2C(C(=O)O)=C(SCCNC=N)C[C@H]12

Km [2]: 1.6 µM
Ks [2]: 13.5 µM
k3 [2]: 0.5 s⁻¹
k cat [2]: 0.4 s⁻¹
k cat/Km [2]: 2.8 M⁻¹ s⁻¹
k2 [4]: 3.7 s⁻¹
Compound: C[C@@H](O)[C@@H]1C(=O)N2[C@@H]1SC(C)(C)[C@@H]2C(=O)O

k cat/Km [5]: 6.6 M⁻¹ s⁻¹
Compound: CC1(C)S[C@@H]2CC(=O)N2[C@H]1C(=O)O
